These results are taken from patent US20160355530A1, “HEPATITIS C INHIBITORS AND USES THEREOF” (AbbVie Inc., priority 2010, published 2016).

Like-named read-outs stand apart in the source and are kept apart here.

Experiment [1] deals with HCV 1a-H77 subgenomic replicon. Nature of the experiment: microbe, parasite or virus in culture. The class given is cell-based, HCV genotype 1a. The following applies: Hepatitis C virus.
In experiment [2] the test system is chimeric replicon with genotype 2b NS5B. In words: microbe, parasite or virus in culture. The class given is cell-based, HCV genotype 2b. As to conditions: Hepatitis C virus, read-out: 2b chimera 5% FBS EC50.
In experiment [3] the test system is HCV NS5B polymerase 1a-H77-C316Y. Nature of the experiment: biochemical. Further details: species or system HCV genotype 1a. As to conditions: ratio of enzyme IC50s, 1a H77-C316Y / 1a H77. The procedure, abridged:
(§1)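 Recombinant NS5B (residues 1–570, His-tagged, E. coli-expressed) copied 5 nM of a 2.1 kb HCV 1b negative-strand 3′-end RNA template with 20 μM CTP, 20 μM ATP and 0.284 μM [3H]UTP for 3 h at 30 °C. Spermine-precipitated RNA was filter-captured and counted, and IC50 was fitted by nonlinear regression.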

For experiment [4], the target named is T1, HCV NS5B polymerase 1a-H77 (Hepatitis C virus genotype 1a, UniProt P27958).
T1 construct: six-histidine tag; made in house; host or cells: E. coli
Nature of the experiment: biochemical. On the set-up: species or system HCV genotype 1a. The procedure, abridged: as §1

In experiment [5] the target is T2, HCV NS5B polymerase 1a-H77-C316Y (Hepatitis C virus genotype 1a, UniProt P27958, C2736Y).
T2 construct: six-histidine tag; made in house; host or cells: E. coli
Nature of the experiment: biochemical. On the set-up: species or system HCV genotype 1a. In outline:
as §1

Experiment [6] addresses T3, HCV NS5B polymerase 1b BK strain (Hepatitis C virus genotype 1b, UniProt P26663).
T3 construct: six-histidine tag; made in house; host or cells: E. coli
In words: HCV NS5B polymerase enzymatic inhibition assay, strain 1b BK. The class given is biochemical. In outline:
as §1

In experiment [7] the test system is chimeric replicon with 2a-J6CF-derived NS5B. In words: microbe, parasite or virus in culture. The following applies: Hepatitis C virus, read-out: 2a chimera 5% FBS EC50. The class given is cell-based, HCV genotype 2a.
Experiment [8] concerns chimeric replicon with genotype 4a NS5B. Nature of the experiment: microbe, parasite or virus in culture. The class given is cell-based, HCV genotype 4a. The following applies: Hepatitis C virus, read-out: 4a chimera 5% FBS EC50.
The test system of experiment [9] is HCV 1b-BB7 subgenomic replicon. Nature of the experiment: microbe, parasite or virus in culture. Format: cell-based, HCV genotype 1b. As to conditions: Hepatitis C virus.
Experiment [10] deals with HCV 1a-H77-C316Y transient subgenomic replicon in Huh-7 derived cell line. In words: microbe, parasite or virus in culture. Format: cell-based, HCV genotype 1a. The following applies: for EC50: Hepatitis C virus, Huh-7, read-out: Transient Replicon 1a H77-C316Y 5% FBS EC50; for Transient Replicon Fold Resistance C316Y/1a: ratio of transient replicon EC50s, C316Y / 1a H77. In outline: (§2)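 Transient format: T7-transcribed replicon RNA lacking Neo, electroporated into Huh-7-derived cells (5×10^3/well), input RNA checked by luciferase at 4 h. Three-fold compound dilution series, 0.5% DMSO, 4 days at 37° C; EC50 from luciferase signal in lysed cells.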
(Replicon systems follow genome replication, usually without infectious particles.)

Experiment [11] has as its system HCV 1a-H77 transient subgenomic replicon in Huh-7 derived cell line. Nature of the experiment: microbe, parasite or virus in culture. Format: cell-based, HCV genotype 1a. As to conditions: Hepatitis C virus. In outline:
as §2

The test system of experiment [12] is chimeric replicon with genotype 3a NS5B. In words: microbe, parasite or virus in culture. The following applies: Hepatitis C virus, read-out: 3a chimera 5% FBS EC50. Format: cell-based, HCV genotype 3a.
Setting [13] is: stable replicon, 5% FBS, absence of human plasma, read-out: Stable Replicon 1a H77 5% FBS EC50.
The mark [14] stands for this setting: stable replicon, strain 1a H77, 5% FBS + 40% human plasma, read-out: 1a H77 5% FBS + 40% Human Plasma EC50.
Setting [15] is: stable replicon, strain 1a H77, 5% FBS, no human plasma, read-out: 1a H77 5% FBS EC50.
[16] abbreviates: stable replicon, strain 1a H77, 5% FBS, read-out: 1a H77 5% FBS EC50.
Where [17] appears, read: enzyme, strain 1a H77, read-out: HCV Polymerase Strain 1a H77 IC50.
Setting [18] is: enzyme, strain 1b BK, read-out: HCV Polymerase Strain 1b BK IC50.
[19] abbreviates: stable replicon, strain 1b BB7, 5% FBS + 40% human plasma, read-out: 1b BB7 5% FBS + 40% Human Plasma EC50.
The mark [20] stands for this setting: stable replicon, strain 1b BB7, 5% FBS, no human plasma, read-out: 1b BB7 5% FBS EC50.
[21] abbreviates: stable replicon, strain 1b BB7, 5% FBS, read-out: 1b BB7 5% FBS EC50.
Where [22] appears, read: Huh-7, transient replicon, 5% FBS, read-out: Transient Replicon 1a H77 5% FBS EC50.

T2 sequence (P27958 2421-2990 C2736Y): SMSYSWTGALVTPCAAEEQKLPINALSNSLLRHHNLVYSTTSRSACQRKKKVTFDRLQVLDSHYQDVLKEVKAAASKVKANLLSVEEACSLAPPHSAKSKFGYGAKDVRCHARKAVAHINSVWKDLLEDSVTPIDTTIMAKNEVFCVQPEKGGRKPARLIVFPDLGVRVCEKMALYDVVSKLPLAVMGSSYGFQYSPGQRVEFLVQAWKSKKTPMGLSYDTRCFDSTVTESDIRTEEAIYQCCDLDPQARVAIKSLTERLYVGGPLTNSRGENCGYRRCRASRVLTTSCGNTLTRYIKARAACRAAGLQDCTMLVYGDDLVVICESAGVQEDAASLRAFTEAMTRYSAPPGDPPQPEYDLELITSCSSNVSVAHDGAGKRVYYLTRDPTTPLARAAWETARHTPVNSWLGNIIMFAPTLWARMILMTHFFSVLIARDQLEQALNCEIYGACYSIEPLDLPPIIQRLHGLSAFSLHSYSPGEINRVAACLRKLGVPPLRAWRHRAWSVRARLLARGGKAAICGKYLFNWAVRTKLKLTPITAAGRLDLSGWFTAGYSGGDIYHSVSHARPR
T3 sequence (P26663 2420-2989): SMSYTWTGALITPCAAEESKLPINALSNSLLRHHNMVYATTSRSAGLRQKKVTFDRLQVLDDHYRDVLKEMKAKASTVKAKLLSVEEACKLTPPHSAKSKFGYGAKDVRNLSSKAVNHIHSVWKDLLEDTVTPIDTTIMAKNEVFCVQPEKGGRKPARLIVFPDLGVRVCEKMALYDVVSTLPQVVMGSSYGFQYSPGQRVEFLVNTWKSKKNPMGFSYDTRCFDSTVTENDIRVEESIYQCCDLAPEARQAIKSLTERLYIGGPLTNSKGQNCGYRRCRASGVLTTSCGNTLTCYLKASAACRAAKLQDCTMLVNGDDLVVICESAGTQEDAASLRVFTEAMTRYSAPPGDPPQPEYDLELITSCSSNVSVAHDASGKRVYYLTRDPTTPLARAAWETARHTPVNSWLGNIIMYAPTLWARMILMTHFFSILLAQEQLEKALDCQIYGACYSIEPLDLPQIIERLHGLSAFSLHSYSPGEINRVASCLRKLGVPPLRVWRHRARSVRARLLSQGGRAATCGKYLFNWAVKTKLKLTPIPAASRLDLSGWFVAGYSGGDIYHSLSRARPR
T1 sequence (P27958 2421-2990): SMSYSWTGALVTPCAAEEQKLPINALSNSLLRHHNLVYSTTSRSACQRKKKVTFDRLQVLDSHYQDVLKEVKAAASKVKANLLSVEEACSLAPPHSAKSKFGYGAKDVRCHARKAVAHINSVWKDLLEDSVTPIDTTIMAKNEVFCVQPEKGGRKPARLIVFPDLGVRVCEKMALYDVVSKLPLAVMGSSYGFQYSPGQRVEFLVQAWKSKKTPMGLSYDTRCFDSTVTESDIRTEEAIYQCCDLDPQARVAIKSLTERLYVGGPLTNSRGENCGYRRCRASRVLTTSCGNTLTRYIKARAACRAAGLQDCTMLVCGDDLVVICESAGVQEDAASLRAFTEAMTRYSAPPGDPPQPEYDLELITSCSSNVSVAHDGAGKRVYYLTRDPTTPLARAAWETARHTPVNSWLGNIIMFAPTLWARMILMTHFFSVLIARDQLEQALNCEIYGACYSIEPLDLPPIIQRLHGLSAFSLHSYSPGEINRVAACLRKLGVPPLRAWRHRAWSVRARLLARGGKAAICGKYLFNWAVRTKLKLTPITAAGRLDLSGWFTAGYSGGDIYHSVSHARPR

Regarding `CS(=O)(=O)N(CCCCO)c1cc2oc(-c3ccc(F)cc3)c(C3=NOCN3)c2cc1C1CC1` [Example 16, N-[5-cyclopropyl-3-(4,5-dihydro-1,2,4-oxadiazol-3-yl)-2-(4-fluorophenyl)-1-benzofuran-6-yl]-N-(4-hydroxybutyl)methanesulfonamide], the concentration for a half-maximal effect (EC50) in [1] (setting [13]) worked out at 3.8 nM; in [1] (setting [14]), 411 nM; in experiment [1] (setting [15]), 3.8 nM; in experiment [1] (setting [16]), 3.8 nM; in experiment [2] it was 60.4 nM; in experiment [7], 43.8 nM. The EC50 amounted to 61.3 nM in experiment [8]; 2190 nM in experiment [9] (setting [19]); 2.5 nM in [9] (setting [20]); 2.5 nM in experiment [9] (setting [21]); 43.7 nM in experiment [10]; 2.6 nM in experiment [11] (setting [22]). Besides, the EC50 in experiment [12] was 5.5 nM. Further, the “C316Y/1a Fold Resistance” value in [3] is reported as 12 fold. Further, the IC50 in [4] (setting [17]) was determined as 3 nM; in experiment [5], 35 nM; in [6] (setting [18]), 18 nM. In addition, the “Transient Replicon Fold Resistance C316Y/1a” value in experiment [10] is 17 fold.
On to `CC(C)CCN(c1cn2nc(-c3ccc(F)cc3)c(-c3ncc[nH]3)c2cc1C1CC1)S(C)(=O)=O` [Example 17, N-[5-cyclopropyl-2-(4-fluorophenyl)-3-(1H-imidazol-2-yl)pyrazolo[1,5-a]pyridin-6-yl]-N-(3-methylbutyl)methanesulfonamide], for which the EC50 amounted to 98.9 nM in experiment [1] (setting [13]); 1200 nM in experiment [1] (setting [14]); 98.9 nM in experiment [1] (setting [15]); 98.9 nM in [1] (setting [16]); 1000 nM in experiment [2]; 1000 nM in experiment [7]. The EC50 in experiment [8] was above 1000 nM; in [9] (setting [19]), 395 nM; in experiment [9] (setting [20]), 57.2 nM; in experiment [9] (setting [21]), 57.2 nM; in experiment [10] it was 838 nM; in experiment [11] (setting [22]), 55 nM. Further, the concentration for a half-maximal effect (EC50) in experiment [12] was found to be 148 nM. In addition, the “C316Y/1a Fold Resistance” value in experiment [3] is listed as 52 fold. Moreover, the half-maximal inhibitory concentration (IC50) in experiment [4] (setting [17]) was 34.9 nM; in [5], 1800 nM; in [6] (setting [18]), 438 nM. Moreover, in experiment [10], the “Transient Replicon Fold Resistance C316Y/1a” value amounted to 15 fold.
With `CS(=O)(=O)N(CCCC#N)c1cc2oc(-c3ccc(F)cc3)c(-c3ncc[nH]3)c2cc1C1CC1` [Example 49, N-(3-cyanopropyl)-N-[5-cyclopropyl-2-(4-fluorophenyl)-3-(1H-imidazol-2-yl)-1-benzofuran-6-yl]methanesulfonamide], the half-maximal effective concentration (EC50) stood at 3.7 nM in experiment [1] (setting [13]); 53.9 nM in [1] (setting [14]); 3.7 nM in [1] (setting [15]); 3.7 nM in experiment [1] (setting [16]); 41.5 nM in experiment [2]; 22.4 nM in [7]. Further, the concentration giving a half-maximal response (EC50) in experiment [8] is 33.9 nM; in [9] (setting [19]) it was 28.1 nM; in experiment [9] (setting [20]), 3 nM; in [9] (setting [21]), 3 nM; in experiment [10] it was 76.8 nM; in experiment [11] (setting [22]) it was 2.2 nM. Moreover, in experiment [12], the half-maximal effective concentration (EC50) was 3.7 nM. Besides, the “C316Y/1a Fold Resistance” value in experiment [3] is listed as 10 fold. The IC50 is 5 nM in [4] (setting [17]), 52 nM in [5] and 17 nM in experiment [6] (setting [18]). In experiment [10], the “Transient Replicon Fold Resistance C316Y/1a” value is 35 fold.
In the case of `CCOC(=O)CCCCN(c1cc2oc(-c3ccc(F)cc3)c(-c3ncc[nH]3)c2cc1C1CC1)S(C)(=O)=O` [Example 50, ethyl 5-{[5-cyclopropyl-2-(4-fluorophenyl)-3-(1H-imidazol-2-yl)-1-benzofuran-6-yl](methylsulfonyl)amino}pentanoate], the EC50 in experiment [1] (setting [13]) was determined as 12.2 nM; in [1] (setting [14]), 97 nM; in experiment [1] (setting [15]), 12.2 nM; in experiment [1] (setting [16]), 12.2 nM; in [2], 147 nM; in experiment [7], 90.7 nM. In addition, the concentration giving a half-maximal response (EC50) in [8] stood at 149 nM; in [9] (setting [19]) it was 67 nM; in experiment [9] (setting [20]) it was 8.7 nM; in experiment [9] (setting [21]), 8.7 nM; in [10], 169 nM; in experiment [11] (setting [22]) it was 9.5 nM. In addition, in experiment [12], the half-maximal effective concentration (EC50) came out at 15.3 nM. Further, the “C316Y/1a Fold Resistance” value in experiment [3] is recorded as 27 fold. In addition, the results for the IC50 in [4] (setting [17]), in experiment [5] and in experiment [6] (setting [18]) were 3.9 nM, 104 nM and 12 nM, respectively. The “Transient Replicon Fold Resistance C316Y/1a” value in experiment [10] was 18 fold.
For `CS(=O)(=O)N(CCC1CCS(=O)(=O)C1)c1cc2oc(-c3ccc(F)cc3)c(-c3ncc[nH]3)c2cc1C1CC1` (stereo not shown) [Example 61, N-[5-cyclopropyl-2-(4-fluorophenyl)-3-(1H-imidazol-2-yl)-1-benzofuran-6-yl]-N-[2-(1,1-dioxidotetrahydrothiophen-3-yl)ethyl]methanesulfonamide], the EC50 in experiment [1] (read-out: 1a H77 5% FBS + 40% Human Plasma EC50) worked out at 72.2 nM; in experiment [1] (read-out: 1a H77 5% FBS EC50), 5.4 nM; in [1] (read-out: Stable Replicon 1a H77 5% FBS EC50), 5.4 nM; in experiment [2] it was 29.9 nM; in experiment [7], 41 nM; in [8], 18.4 nM. Also, the EC50 in experiment [9] (read-out: 1b BB7 5% FBS + 40% Human Plasma EC50) stood at 18.4 nM; in [9] (read-out: 1b BB7 5% FBS EC50), 3 nM; in experiment [10], 45.8 nM; in experiment [11] (Huh-7, read-out: Transient Replicon 1a H77 5% FBS EC50), 3.6 nM; in experiment [12], 6.2 nM. In [3], the “C316Y/1a Fold Resistance” value is listed as 9 fold. The half-maximal inhibitory concentration (IC50) in [4] was determined as 8.9 nM; in experiment [5], 76 nM; in experiment [6] it was 16 nM. In addition, in experiment [10], the “Transient Replicon Fold Resistance C316Y/1a” value was found to be 13 fold.
As to `Cc1ccc(C)n1-c1nc(CCCN(c2cc3oc(-c4ccc(F)cc4)c(-c4ncc[nH]4)c3cc2C2CC2)S(C)(=O)=O)cs1` [Example 62, N-[5-cyclopropyl-2-(4-fluorophenyl)-3-(1H-imidazol-2-yl)-1-benzofuran-6-yl]-N-{3-[2-(2,5-dimethyl-1H-pyrrol-1-yl)-1,3-thiazol-4-yl]propyl}methanesulfonamide], the EC50 was 88.7 nM in experiment [1] (setting [13]); 342 nM in experiment [1] (setting [14]); 88.7 nM in experiment [1] (setting [15]); 88.7 nM in experiment [1] (setting [16]); 471 nM in experiment [2]; 309 nM in [7]. The 50% effective concentration (EC50) in experiment [8] is 364 nM; in [9] (setting [19]) it was 328 nM; in experiment [9] (setting [20]), 71 nM; in experiment [9] (setting [21]) it was 71 nM; in [10], 899 nM; in experiment [11] (setting [22]) it was 60.6 nM. Besides, in [12], the EC50 came out at 49.9 nM. Moreover, in experiment [3], the “C316Y/1a Fold Resistance” value turned out to be 65 fold. The IC50 in experiment [4] (setting [17]) was 3.9 nM; in experiment [5], 250 nM; in experiment [6] (setting [18]), 14 nM. In addition, the “Transient Replicon Fold Resistance C316Y/1a” value in experiment [10] was determined as 15 fold.

By EC50 is commonly meant the midpoint of the concentration-response curve. In general, IC50 refers to the concentration that gives 50% inhibition.
